Assays:
Format in all cases: in vivo
Thrips tabaci = Thrips tabaci (onion thrips) sunflower leaf disc test; settings: foliar, 144 h
Experimental: Thrips tabaci (Onion Thrips):
(§1) Sunflower leaf discs were placed on agar in 24-well microtiter plates and sprayed with aqueous test solutions prepared from 10′000 ppm DMSO stock solutions. After drying the leaf discs were infested with a thrips population of mixed ages. The samples were assessed for mortality 6 days after infestation.

Myzus persicae = Myzus persicae (green peach aphid) sunflower leaf disc test; settings: foliar, 144 h
Experimental: Myzus persicae (Green Peach Aphid):
Sunflower leaf discs were placed on agar in a 24-well microtiter plate and sprayed with test solutions at an application rate of 200 ppm. After drying, the leaf discs were infested with an aphid population of mixed ages. After an incubation period of 6 days after treatment, samples were checked for mortality. The following compounds gave at least 80% mortality of Myzus persicae: […]

Spodoptera littoralis = Spodoptera littoralis (Egyptian cotton leaf worm) cotton leaf disc test; settings: foliar, 72 h, read-out: control (at least one of mortality, anti-feedant effect, and growth inhibition)
Experimental: Spodoptera littoralis (Egyptian Cotton Leaf Worm)
Cotton leaf discs were placed on agar in 24-well microtiter plates and sprayed with aqueous test solutions prepared from 10′000 ppm DMSO stock solutions. After drying the leaf discs were infested with five L1 larvae. The samples were assessed for mortality, anti-feedant effect, and growth inhibition in comparison to untreated samples 3 days after infestation. Control of Spodoptera littoralis by a test sample is when at least one of mortality, anti-feedant effect, and growth inhibition is higher than the untreated sample.

Plutella xylostella = Plutella xylostella (diamond back moth) artificial diet test; settings: 120 h, read-out: effect in at least one of the two categories (mortality or growth inhibition)
Experimental: Plutella xylostella (Diamond Back Moth):
(§2) 24-well microtiter plates with artificial diet were treated with aqueous test solutions prepared from 10′000 ppm DMSO stock solutions by pipetting. After drying, the plates were infested with L2 larvae (10 to 15 per well). The samples were assessed for mortality and growth inhibition in comparison to untreated samples 5 days after infestation. The following compounds gave an effect of at least 80% in at least one of the two categories (mortality or growth inhibition) at an application rate of 200 ppm: […]

Tetranychus urticae = Tetranychus urticae (two-spotted spider mite) bean leaf disc test; settings: foliar, 192 h
Experimental: Tetranychus urticae (Two-Spotted Spider Mite):
as §1, with “Bean” for “Sunflower”, “discs” for “discs were placed”, “were” for “and”, “mite” for “thrips”, “on mixed population (mobile stages) 8” for “6”

Diabrotica Balteata = test: Diabrotica balteata (corn root worm) maize sprout test; settings: 96 h, read-out: effect in at least one of the two categories (mortality or growth inhibition)
Experimental: Diabrotica Balteata, (Corn Root Worm)
as §2, with “Maize sprouts, placed on an agar layer in 24-well” for “24-well”, “plates” for “plates with artificial diet”, “spraying.” for “pipetting.”, “(6” for “(10”, “10” for “15”, “4” for “5”

Cc1cc(C2=NO[C@@](c3cc(Cl)c(F)c(Cl)c3)(C(F)(F)F)C2)ccc1C(=O)N[C@@H]1CC(Br)=NO1 (single isomer, unassigned) [Compound A147]
≥ 80%: mortality at 200 ppm (Thrips tabaci) | mortality at 200 ppm (Myzus persicae) | percent control (mortality, anti-feedant effect or growth inhibition) at 200 ppm (Spodoptera littoralis) | percent effect (mortality or growth inhibition) at 200 ppm (Plutella xylostella) | mortality at 200 ppm (Tetranychus urticae) | percent effect (mortality or growth inhibition) at 200 ppm (Diabrotica Balteata)

COC1=NO[C@H](NC(=O)c2ccc(C3=NO[C@@](c4cc(Cl)c(Cl)c(Cl)c4)(C(F)(F)F)C3)cc2C)C1 (single isomer, unassigned) [Compound A148]
≥ 80%: mortality at 200 ppm (Thrips tabaci) | mortality at 200 ppm (Myzus persicae) | percent control (mortality, anti-feedant effect or growth inhibition) at 200 ppm (Spodoptera littoralis) | percent effect (mortality or growth inhibition) at 200 ppm (Plutella xylostella) | mortality at 200 ppm (Tetranychus urticae) | percent effect (mortality or growth inhibition) at 200 ppm (Diabrotica Balteata)

COC1=NO[C@@H](NC(=O)c2ccc(C3=NO[C@@](c4cc(Cl)c(Cl)c(Cl)c4)(C(F)(F)F)C3)cc2C)C1 (single isomer, unassigned) [Compound A149]
≥ 80%: mortality at 200 ppm (Thrips tabaci) | mortality at 200 ppm (Myzus persicae) | percent control (mortality, anti-feedant effect or growth inhibition) at 200 ppm (Spodoptera littoralis) | percent effect (mortality or growth inhibition) at 200 ppm (Plutella xylostella) | mortality at 200 ppm (Tetranychus urticae) | percent effect (mortality or growth inhibition) at 200 ppm (Diabrotica Balteata)

COC1=NO[C@H](NC(=O)c2ccc(C3=NO[C@@](c4cc(Cl)c(F)c(Cl)c4)(C(F)(F)F)C3)cc2C)C1 (single isomer, unassigned) [Compound A150]
≥ 80%: mortality at 200 ppm (Thrips tabaci) | mortality at 200 ppm (Myzus persicae) | percent control (mortality, anti-feedant effect or growth inhibition) at 200 ppm (Spodoptera littoralis) | percent effect (mortality or growth inhibition) at 200 ppm (Plutella xylostella) | mortality at 200 ppm (Tetranychus urticae) | percent effect (mortality or growth inhibition) at 200 ppm (Diabrotica Balteata)

Cc1cc(C2=NO[C@@](c3cc(Cl)cc(Cl)c3)(C(F)(F)F)C2)ccc1C(=O)N[C@@H]1CC(C(F)(F)F)=NO1 (single isomer, unassigned) [Compound A154]
≥ 80%: mortality at 200 ppm (Thrips tabaci) | mortality at 200 ppm (Myzus persicae) | percent control (mortality, anti-feedant effect or growth inhibition) at 200 ppm (Spodoptera littoralis) | percent effect (mortality or growth inhibition) at 200 ppm (Plutella xylostella) | mortality at 200 ppm (Tetranychus urticae) | percent effect (mortality or growth inhibition) at 200 ppm (Diabrotica Balteata)

Cc1cc(C2=NO[C@@](c3cc(Cl)cc(Cl)c3)(C(F)(F)F)C2)ccc1C(=O)N[C@H]1CC(C(F)(F)F)=NO1 (single isomer, unassigned) [Compound A155]
≥ 80%: mortality at 200 ppm (Thrips tabaci) | mortality at 200 ppm (Myzus persicae) | percent control (mortality, anti-feedant effect or growth inhibition) at 200 ppm (Spodoptera littoralis) | percent effect (mortality or growth inhibition) at 200 ppm (Plutella xylostella) | mortality at 200 ppm (Tetranychus urticae) | percent effect (mortality or growth inhibition) at 200 ppm (Diabrotica Balteata)

Cc1cc(C2=NO[C@@](c3cc(Cl)cc(Cl)c3)(C(F)(F)F)C2)ccc1C(=O)N[C@@H]1CC(OCC(F)(F)F)=NO1 (single isomer, unassigned) [Compound A156]
≥ 80%: mortality at 200 ppm (Thrips tabaci) | mortality at 200 ppm (Myzus persicae) | percent control (mortality, anti-feedant effect or growth inhibition) at 200 ppm (Spodoptera littoralis) | percent effect (mortality or growth inhibition) at 200 ppm (Plutella xylostella) | mortality at 200 ppm (Tetranychus urticae) | percent effect (mortality or growth inhibition) at 200 ppm (Diabrotica Balteata)

CCOC1=NO[C@H](NC(=O)c2ccc(C3=NO[C@@](c4cc(Cl)cc(Cl)c4)(C(F)(F)F)C3)cc2C)C1 (single isomer, unassigned) [Compound A158]
≥ 80%: mortality at 200 ppm (Thrips tabaci) | mortality at 200 ppm (Myzus persicae) | percent control (mortality, anti-feedant effect or growth inhibition) at 200 ppm (Spodoptera littoralis) | percent effect (mortality or growth inhibition) at 200 ppm (Plutella xylostella) | mortality at 200 ppm (Tetranychus urticae) | percent effect (mortality or growth inhibition) at 200 ppm (Diabrotica Balteata)

Cc1cc(C2=NO[C@@](c3cc(Cl)c(F)c(Cl)c3)(C(F)(F)F)C2)ccc1C(=O)NC1CC(Br)=NO1 (stereo partly drawn) [Compound A001, N-(3-bromo-4,5-dihydroisoxazol-5-yl)-4-[(5S)-5-(3,5-dichloro-4-fluoro-phenyl)-5-(trifluoromethyl)-4H-isoxazol-3-yl]-2-methyl-benzamide]
≥ 80%: mortality at 200 ppm (Thrips tabaci) | mortality at 200 ppm (Myzus persicae) | percent control (mortality, anti-feedant effect or growth inhibition) at 200 ppm (Spodoptera littoralis) | percent effect (mortality or growth inhibition) at 200 ppm (Plutella xylostella) | mortality at 200 ppm (Tetranychus urticae) | percent effect (mortality or growth inhibition) at 200 ppm (Diabrotica Balteata)

Cc1cc(C2=NO[C@@](c3cc(Cl)c(F)c(Cl)c3)(C(F)(F)F)C2)ccc1C(=O)N(C=O)C1CC(Br)=NO1 (stereo partly drawn) [Compound A002, N-(3-bromo-4,5-dihydroisoxazol-5-yl)-4-[(5S)-5-(3,5-dichloro-4-fluoro-phenyl)-5-(trifluoromethyl)-4H-isoxazol-3-yl]-N-formyl-2-methyl-benzamide]
≥ 80%: mortality at 200 ppm (Thrips tabaci) | mortality at 200 ppm (Myzus persicae) | percent control (mortality, anti-feedant effect or growth inhibition) at 200 ppm (Spodoptera littoralis) | percent effect (mortality or growth inhibition) at 200 ppm (Plutella xylostella) | mortality at 200 ppm (Tetranychus urticae) | percent effect (mortality or growth inhibition) at 200 ppm (Diabrotica Balteata)

Cc1cc(C2=NO[C@@](c3cc(Cl)c(F)c(Cl)c3)(C(F)(F)F)C2)ccc1C(=O)NC1CC(Cl)=NO1 (stereo partly drawn) [Compound A003, N-(3-chloro-4,5-dihydroisoxazol-5-yl)-4-[(5S)-5-(3,5-dichloro-4-fluoro-phenyl)-5-(trifluoromethyl)-4H-isoxazol-3-yl]-2-methyl-benzamide]
≥ 80%: mortality at 200 ppm (Thrips tabaci) | mortality at 200 ppm (Myzus persicae) | percent control (mortality, anti-feedant effect or growth inhibition) at 200 ppm (Spodoptera littoralis) | percent effect (mortality or growth inhibition) at 200 ppm (Plutella xylostella) | mortality at 200 ppm (Tetranychus urticae) | percent effect (mortality or growth inhibition) at 200 ppm (Diabrotica Balteata)

Cc1cc(C2=NO[C@@](c3cc(Cl)c(F)c(Cl)c3)(C(F)(F)F)C2)ccc1C(=O)N(C=O)C1CC(C(F)(F)F)=NO1 (stereo partly drawn) [Compound A004, 4-[(5S)-5-(3,5-dichloro-4-fluoro-phenyl)-5-(trifluoromethyl)-4H-isoxazol-3-yl]-N-formyl-2-methyl-N-[3-(trifluoromethyl)-4,5-dihydroisoxazol-5-yl]benzamide]
≥ 80%: mortality at 200 ppm (Thrips tabaci) | mortality at 200 ppm (Myzus persicae) | percent control (mortality, anti-feedant effect or growth inhibition) at 200 ppm (Spodoptera littoralis) | percent effect (mortality or growth inhibition) at 200 ppm (Plutella xylostella) | mortality at 200 ppm (Tetranychus urticae) | percent effect (mortality or growth inhibition) at 200 ppm (Diabrotica Balteata)

Cc1cc(C2=NO[C@@](c3cc(Cl)c(F)c(Cl)c3)(C(F)(F)F)C2)ccc1C(=O)NC1CC(C(F)(F)F)=NO1 (stereo partly drawn) [Compound A005, 4-[(5S)-5-(3,5-dichloro-4-fluoro-phenyl)-5-(trifluoromethyl)-4H-isoxazol-3-yl]-2-methyl-N-[3-(trifluoromethyl)-4,5-dihydroisoxazol-5-yl]benzamide]
≥ 80%: mortality at 200 ppm (Thrips tabaci) | mortality at 200 ppm (Myzus persicae) | percent control (mortality, anti-feedant effect or growth inhibition) at 200 ppm (Spodoptera littoralis) | percent effect (mortality or growth inhibition) at 200 ppm (Plutella xylostella) | mortality at 200 ppm (Tetranychus urticae) | percent effect (mortality or growth inhibition) at 200 ppm (Diabrotica Balteata)

CC1=NOC(N(C=O)C(=O)c2ccc(C3=NO[C@@](c4cc(Cl)c(F)c(Cl)c4)(C(F)(F)F)C3)cc2C)C1 (stereo partly drawn) [Compound A008, 4-[(5S)-5-(3,5-dichloro-4-fluoro-phenyl)-5-(trifluoromethyl)-4H-isoxazol-3-yl]-N-formyl-2-methyl-N-(3-methyl-4,5-dihydroisoxazol-5-yl)benzamide]
≥ 80%: mortality at 200 ppm (Thrips tabaci) | mortality at 200 ppm (Myzus persicae) | percent control (mortality, anti-feedant effect or growth inhibition) at 200 ppm (Spodoptera littoralis) | percent effect (mortality or growth inhibition) at 200 ppm (Plutella xylostella) | mortality at 200 ppm (Tetranychus urticae) | percent effect (mortality or growth inhibition) at 200 ppm (Diabrotica Balteata)

Cc1cc(C2=NO[C@@](c3cc(Cl)c(Cl)c(Cl)c3)(C(F)(F)F)C2)ccc1C(=O)NC1CC(OCC(=O)N(C)C)=NO1 (stereo partly drawn) [Compound A114, N-[3-[2-(dimethylamino)-2-oxo-ethoxy]-4,5-dihydroisoxazol-5-yl]-2-methyl-4-[(5S)-5-(3,4,5-trichlorophenyl)-5-(trifluoromethyl)-4H-isoxazol-3-yl]benzamide]
≥ 80%: mortality at 200 ppm (Thrips tabaci) | mortality at 200 ppm (Myzus persicae) | percent control (mortality, anti-feedant effect or growth inhibition) at 200 ppm (Spodoptera littoralis) | percent effect (mortality or growth inhibition) at 200 ppm (Plutella xylostella) | mortality at 200 ppm (Tetranychus urticae)

C/C(N)=N/OC1=NOC(NC(=O)c2ccc(C3=NO[C@@](c4cc(Cl)c(F)c(Cl)c4)(C(F)(F)F)C3)cc2C)C1 (stereo partly drawn) [Compound A143, N-[3-[(Z)-1-aminoethylideneamino]oxy-4,5-dihydroisoxazol-5-yl]-4-[(5S)-5-(3,5-dichloro-4-fluoro-phenyl)-5-(trifluoromethyl)-4H-isoxazol-3-yl]-2-methyl-benzamide]
≥ 80%: mortality at 200 ppm (Thrips tabaci) | percent control (mortality, anti-feedant effect or growth inhibition) at 200 ppm (Spodoptera littoralis) | percent effect (mortality or growth inhibition) at 200 ppm (Plutella xylostella) | mortality at 200 ppm (Tetranychus urticae) | percent effect (mortality or growth inhibition) at 200 ppm (Diabrotica Balteata)
